# According to publication PMC9305975 (Journal of the American Chemical Society, 2022):
# Biological target: VcRibB (RibB, 3,4-dihydroxy-2-butanone 4-phosphate synthase) (Vibrio cholerae, UniProt Q9KKP2)
# Settings: two Mn2+ in the active site; non-substrate analogue
# Chain of VcRibB (RibB, 3,4-dihydroxy-2-butanone 4-phosphate synthase) (Q9KKP2 whole entry): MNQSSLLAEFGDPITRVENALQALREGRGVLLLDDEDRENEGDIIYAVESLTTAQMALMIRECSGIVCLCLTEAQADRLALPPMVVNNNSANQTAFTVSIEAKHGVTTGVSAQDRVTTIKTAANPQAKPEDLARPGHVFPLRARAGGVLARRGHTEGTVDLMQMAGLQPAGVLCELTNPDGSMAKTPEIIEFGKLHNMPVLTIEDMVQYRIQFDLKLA
smiles,measurement,value
O=C(CO)[C@H](O)[C@@H](O)COP(=O)(O)O [L-xylulose 5-phosphate],X-ray crystal structure; EPR,"L-xylulose 5-phosphate (L-Xy5P), showing two manganese ions and a significantly different, more twisted binding"
